According to publication PMC6274529, “Flavonoids-Rich Orthosiphon stamineus Extract as New Candidate for Angiotensin I-Converting Enzyme Inhibition: A Molecular Docking Study” (Molecules, 2016):
“And” between values parts separate entries of the source, which are not always exact repeats. Equal entries are not always repeated. Where two headings read alike, the source gives them in different places.

Columns and labels:
[1] = Chelation of zinc (II) ion by tetramethylmurexide reagent; assay type: physicochemical; conditions: hexamine/HCl buffer pH 5.0, mean ± SD
Experimental: Therefore, this extract was selected to study its chelation ability with zinc (II) ion. […]. Based on this standard curve, the amount of metal ions bound by the compound tested was evaluated. […].
Briefly, 0.01 M hexamine/HCl buffer was prepared at pH 5.0 with addition of 0.01 M KCl. Stock solution of captopril. […] A series of working sample solutions were prepared by diluting the stock solutions with hexamine/HCl buffer (0–5 mg/mL). ZnCl2 was prepared in the same buffer at concentration of 0.8 mM. Then, 1 mL of sample solutions was mixed with 1 mL ZnCl2 solution and 0.1 mL tetramethylmurexide at concentration of 1 mM. Absorbance was recorded at 462 nm and 530 nm and then the ratio of A462/A530 was calculated. Distilled deionized water was used instead of tetramethylmurexide reagent in control samples. A standard curve of absorbance ratio versus metal ions concentrations (0 to 3.2 mM) was prepared and the percentage of bound metal ions was calculated. Percentage of bond with Zn^2+ = 1 − (Concentration of free Zn^2+/Concentration of total Zn^2+) × 100(4)

[2] = biological target: T1, ACE enzyme (from rabbit lung) (Oryctolagus cuniculus, UniProt P12822); test: In vitro ACE inhibition activity (HA formation from HHL, HPLC-UV)
T1 sequence (P12822 34-1310): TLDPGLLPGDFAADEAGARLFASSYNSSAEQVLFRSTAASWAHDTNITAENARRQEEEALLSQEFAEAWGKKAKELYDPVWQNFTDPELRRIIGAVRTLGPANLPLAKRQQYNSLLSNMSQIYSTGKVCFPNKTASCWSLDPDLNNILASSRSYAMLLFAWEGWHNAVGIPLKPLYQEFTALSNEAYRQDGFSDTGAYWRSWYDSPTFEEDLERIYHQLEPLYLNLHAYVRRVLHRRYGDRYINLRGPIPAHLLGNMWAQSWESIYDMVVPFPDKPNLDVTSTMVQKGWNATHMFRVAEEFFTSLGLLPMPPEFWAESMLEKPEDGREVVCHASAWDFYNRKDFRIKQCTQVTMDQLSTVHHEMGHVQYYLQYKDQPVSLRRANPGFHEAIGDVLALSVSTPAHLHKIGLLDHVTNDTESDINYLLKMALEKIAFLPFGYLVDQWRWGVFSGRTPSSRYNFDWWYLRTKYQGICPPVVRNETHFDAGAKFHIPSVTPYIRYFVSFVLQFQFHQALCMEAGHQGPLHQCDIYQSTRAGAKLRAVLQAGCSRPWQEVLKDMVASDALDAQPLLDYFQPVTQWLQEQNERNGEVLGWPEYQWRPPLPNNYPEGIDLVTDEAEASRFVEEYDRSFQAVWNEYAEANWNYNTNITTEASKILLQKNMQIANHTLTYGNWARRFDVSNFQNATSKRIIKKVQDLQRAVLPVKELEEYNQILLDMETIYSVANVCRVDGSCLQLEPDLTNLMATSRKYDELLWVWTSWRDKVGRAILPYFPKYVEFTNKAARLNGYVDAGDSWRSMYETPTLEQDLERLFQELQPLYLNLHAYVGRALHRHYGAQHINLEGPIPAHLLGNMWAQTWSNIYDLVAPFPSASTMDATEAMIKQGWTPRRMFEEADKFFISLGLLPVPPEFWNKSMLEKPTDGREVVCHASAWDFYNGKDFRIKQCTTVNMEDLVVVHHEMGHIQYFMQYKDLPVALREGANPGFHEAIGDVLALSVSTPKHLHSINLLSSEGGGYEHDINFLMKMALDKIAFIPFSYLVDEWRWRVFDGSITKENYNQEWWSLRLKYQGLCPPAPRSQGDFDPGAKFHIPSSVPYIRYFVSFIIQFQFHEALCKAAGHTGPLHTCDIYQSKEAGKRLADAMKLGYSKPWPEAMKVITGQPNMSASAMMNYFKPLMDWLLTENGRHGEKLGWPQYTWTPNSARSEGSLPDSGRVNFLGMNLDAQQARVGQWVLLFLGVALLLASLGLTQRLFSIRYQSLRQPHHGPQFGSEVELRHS
Experimental: This method relies on determining hippuric acid (HA) formation from ACE-specific substrate hippuryl-histidyl-leucine (HHL) by the action of ACE enzyme, resulting in the removal of C-terminal dipeptide histidylleucine.
The high performance liquid chromatography (HPLC) was performed using an Agilent Technologies (Series 1200 infinity, Frankfurt, Germany) system. Separations were accomplished on a Zorbax Eclipse plus phenyl-hexyl (4.6 mm × 250 mm, 5 µm, Agilent) and the column temperature was maintained at 30 °C. Substrates of HA and HHL were detected at 228 nm. The flow rate was set at 0.6 mL/min and injection volume was 10 μL. The mobile phase consisted of 20% acetonitrile and 80% of 0.1% ammonium dihydrogen phosphate buffer was used in this analysis with 10 min separation time.
For substrate HHL hydrolysis catalyzed by purified rabbit ACE enzyme, the total reaction volume was 200 µL. Phosphate buffer (pH 8.3) was used to dilute the substrate HHL and rabbit lung ACE enzyme. […] The reaction mixtures were incubated for 2 h at 37 °C. The reaction was terminated by heating the samples at 100 °C in water bath, and then 800 µL of water was added to all samples, and they were analyzed by stated HPLC method.
HHL as substrate was prepared freshly in 10 mM phosphate buffer pH 8.3 and then sonicated for 30 min. […] Angiotensin converting enzyme (ACE) was prepared at 0.05 U/mL in phosphate buffer pH 8.3 containing 0.1% bovine serum albumin (BSA). Then, 50 µL of purified ACE enzyme and 20 µL extracts, reference compounds or captopril at different concentrations were added to 130 µL of HHL substrate. Control reaction mixture was contained 20 µL of 50% ethanol instead of extracts. All samples were incubated for 2 h at 37 °C. The reaction was stopped by heating the samples at 100 °C. All samples were analyzed by HPLC after adding 800 µL of water. ACE inhibition rate was calculated by the following equation: ACE inhibition activity of test substances (%) = [(HA concentration levels without test substances) − (HA concentration levels with test substances)/(HA concentration levels without test substances)] × 100 (3)

SMILES	IC50 ([2]; IC50 on in vitro ACE inhibitory assay, purified rabbit lung ACE, HHL substrate, 2 h at 37 °C, mean ± SD (n = 3))	IC50 [2] [µM]	Zn (II) chelating activity (percentage of bound Zn (II)) ([1]; at concentration of 4 mg/mL)	Zn (II) chelating activity (percentage of bound Zn (II)) ([1]; at concentration of 5 mg/mL)
C[C@H](CS)C(=O)N1CCC[C@H]1C(=O)O [Captopril, captopril]			100% ± 1.59%	
COc1ccc(-c2cc(=O)c3c(O)c(OC)c(OC)cc3o2)cc1O [EUP, eupatorin]	44.6 µM and 44.7 µM			56.03% ± 1.26%

Second part, led by results:

IC50 ([2]; IC50 on in vitro ACE inhibitory assay, purified rabbit lung ACE, HHL substrate, 2 h at 37 °C, mean ± SD (n = 3))	IC50 [2] [µM]	SMILES	Zn (II) chelating activity (percentage of bound Zn (II)) ([1]; at concentration of 4 mg/mL)	Zn (II) chelating activity (percentage of bound Zn (II)) ([1]; at concentration of 5 mg/mL)
	52.2	O=C(/C=C/c1ccc(O)c(O)c1)O[C@H](Cc1ccc(O)c(O)c1)C(=O)O [RA, rosmarinic acid]		
	79.2	COc1ccc(-c2cc(=O)c3c(OC)c(OC)c(OC)cc3o2)cc1OC [SIN, sinensetin]		6.71% ± 0.62%
	77.9	COc1ccc(-c2cc(=O)c3c(OC)c(OC)c(OC)cc3o2)cc1O [TMF, 3′-hydroxy-5,6,7,4′-tetramethoxyflavone]		
